According to patent US5942248A, “Pharmaceutical composition containing a low detergent effect bile salt and an active compound that undergoes biliary excretion and/or enterohepatic recycling” (priority 1992, dated 1999):
Like-named read-outs stand apart in the source and are kept apart here.

What was measured:
[1] = cited from earlier work
gastrointestinal mucosa = details: in vivo; cited from earlier work
[2] = test system: isolated perfused rat liver; details: cited from earlier work
[3] = cited from earlier work; remark: listed apart in the source
[4] = cited from earlier work; remark: listed apart in the source
[5] = pH 7.3 buffer, 37° C.; cited from earlier work
[6] = Stability of indomethacin in stored plasma samples; type: physicochemical; details: -20° C.
Method: The medication was taken with approx. 250 ml of boiled tap water. The zero time blood samples were taken within a 5 min period preceding the administration of the medication. Subsequent samples were taken at 0.5, 1.0, 1.5, 2.0, 2.5, 3.0, 4.0, 6.0, 8.0, 10.0 and 12.0 h. Blood samples were collected into lithium heparin tubes, gently mixed and centrifuged at 2.0×10^3 g.min within 15min of collection. Separated plasma was transferred into a clean tube and stored at -20° C. After a one week interval, the subjects received the alternative medication and the blood sampling protocol was repeated. Plasma samples were analysed by the HPLC method described by S. K. Cole et al (1992) Int. J. Pharm. 80, 63-73.

[7] = test system: mono-layer cultures of isolated rat hepatocytes; details: cited from earlier work
[8] = test system: subjects receiving gallstone dissolution therapy; details: rather than chenodeoxycholate; cited from earlier work
human erythrocytes = details: cited from earlier work
rats = details: induced by more detergent dihydroxy and trihydroxy bile acids; cited from earlier work
[9] = test system: isolated perfused rat liver; details: cited from earlier work; remark: listed apart in the source
[10] = test system: isolated human hepatocytes; details: cited from earlier work
patients = details: chronic active hepatitis, primary biliary cirrhosis, cystic fibrosis; cited from earlier work
[11] = test system: heart transplant patients; details: cyclosporine-induced cholestasis; cited from earlier work
[12] = aqueous solution; cited from earlier work

SMILES: CC1(C)S[C@@H]2[C@H](NC(=O)[C@H](N)c3ccccc3)C(=O)N2[C@H]1C(=O)O [ampicillin]
- biliary excretion with exogenously added bile acids ([1]; variety of animal species): increased the biliary excretion

SMILES: CC(=O)Oc1ccccc1C(=O)O [aspirin]
- gastrointestinal bleeding / lesions (gastrointestinal mucosa): gastrointestinal bleeding

SMILES: C=CC1=C(C)/C(=C/c2[nH]c(Cc3[nH]c(/C=C4\NC(=O)C(C)=C4C=C)c(C)c3CCC(=O)O)c(CCC(=O)O)c2C)NC1=O [bilirubin]
- biliary excretion with exogenously added bile acids ([1]; in vivo): increased the biliary excretion

SMILES: O=C1OC(c2ccc(O)c(S(=O)(=O)O)c2)(c2ccc(O)c(S(=O)(=O)O)c2)c2c(Br)c(Br)c(Br)c(Br)c21 [bromosulphthalein]
- biliary excretion with exogenously added bile acids ([1]; variety of animal species): increased the biliary excretion

SMILES: CN(C)CCCN1c2ccccc2Sc2ccc(Cl)cc21 [chlorpromiazine]
- cholestasis caused [2]: drug-induced cholestasis

SMILES: C[C@]12CC[C@@H]3c4ccc(O)cc4CC[C@H]3[C@@H]1CC[C@@H]2O[C@@H]1O[C@H](C(=O)O)[C@@H](O)[C@H](O)[C@H]1O [estradiol-17-β-D-glucaronide]
- cholestasis caused [2]: drug-induced cholestasis

SMILES: CC1(C)C(/C=C/C=C/C=C/C=C2\N(CCCCS(=O)(=O)O)c3ccc4ccccc4c3C2(C)C)=[N+](CCCCS(=O)(=O)[O-])c2ccc3ccccc3c21 [indocyamine green]
- biliary excretion with exogenously added bile acids ([1]; variety of animal species): increased the biliary excretion

SMILES: COc1ccc2c(c1)c(CC(=O)O)c(C)n2C(=O)c1ccc(Cl)cc1 [indomethacin]
- biliary clearance / enterohepatic circulation (in words) ([3]; in vivo): Extensive clearance of intact indomethacin into the bile
- plasma clearance ([3]; in vivo): low plasma clearance
- plasma half-life ([3]; in vivo): short plasma half-life
- route of excretion ([3]; in vivo): mainly excreted via the hepato-biliaryroute
- volume distribution ([3]; in vivo): low volume distribution
- extent of enterohepatic recycling ([3]; man and animals): 21-41%
- absorption rate in vivo with bile acids [4]: did not translate into an enhanced absorption rate in vivo
- bioavailability with exogenously added bile acids ([4]; in vivo): increased the bioavailability of indomethacin
- inter-subject variation with exogenously added bile acids ([4]; in vivo): decreasing inter-subject variation
- dissolution in presence of sodium deoxycholate and sodium cholate [5]: enhance the dissolution
- degradation of indomethacin in stored plasma [6]: No degradation of indomethacin was detected

SMILES: CCC(Cc1c(I)cc(I)c(N)c1I)C(=O)O (centres unmarked) [iopanoic acid]
- biliary excretion with exogenously added bile acids ([1]; in vivo): increased the biliary excretion

SMILES: CCCCC1C(=O)N(c2ccccc2)N(c2ccccc2)C1=O [phenylbutazone]
- dissolution in presence of sodium deoxycholate and sodium cholate [5]: enhance the dissolution

SMILES: CN1C(C(=O)Nc2ccccn2)=C(O)c2ccccc2S1(=O)=O [piroxicam]
- gastrointestinal bleeding / lesions (gastrointestinal mucosa): gastrointestinal bleeding

SMILES: C[C@H](CCC(=O)O)[C@H]1CC[C@H]2[C@@H]3[C@@H](O)C[C@@H]4C[C@H](O)CC[C@]4(C)[C@H]3CC[C@]12C [ursodeoxycholate, Ursodeoxycholate]
- prevention of toxicological effects of more detergent bile acids [7]: prevent the toxicological effects of more detergent bile acids
- gastrointestinal side-effects [8]: decreased incidence of gastrointestinal side-effects
- hepatic enzyme levels in plasma [8]: lower hepatic intracellar enzyme levels
- prevention of toxicological effects of more detergent bile acids (human erythrocytes): prevent the toxicological effects of more detergent bile acids
- reversal of drug-induced cholestasis ([2]; caused by estradiol-17-β-D-glaucaronide and chlorpromazine): reverse drug-induced cholestasis
- biliary excretion of membrane enzymes (rats): reduces the biliary excretion of membrane enzymes
- detergent effect in isolated perfused rat liver [9]: lack of detergent effect
- detergent effect in isolated human hepatocytes [10]: lack of detergent effect
- measures of hepatic damage (patients): reverse measures of hepatic damage
- plasma levels of liver enzymes and bilirubin [11]: reverse the elevated plasma levels of liver enzymes and bilirubin
- CMC [12]: 1 to 3 mM
